Patent US11697679B2, “Modified collagen protein and application of same” (UNIVERSITY OF TSUKUBA, priority 2017, dated 2023)

System: GFP-inserted Type V collagen α1 expression MC3T3-E1
Assay: Fibrogenesis inhibitory experiment in stress culture in multi-well plates
Format: cell-based, mouse
Details: 1.0 mg/ml added when switched to stress culture; observed after 28 days; compared to wells without Pirfenidone; FIG. 18
Procedure: Normal cultivation was performed using the following materials. Cultivations using MC3T3-E1 and Balb3T3, respectively, were performed in αMEM medium containing 10% serum, and in MEM medium containing 10% serum, at 37° C. and 5% CO2. • Serum: Fetal bovine serum (Gibco) • Medium: Minimum Essential Medium Alpha (Gibco) • Medium: Minimum Essential Medium (Gibco) • Dish for culturing cells: Cell culture dish 60×15 mm (Falcon)
The following flasks were filled with medium for shaking culture. • Cell-culture flasks: 25 mL (Falcon) of Cell culture flask (12.5 cm^2 slant neck/plug seal)
The shaking culture was performed using a mini-shaker SHM-2002 (LMS) at a shaking angle of 7° and a rotational speed of 20 rpm using a sunflower shaking method.
OLYMPUS LX73 was used for fluorescent microscopy. The following filter sets were used for fluorescence imaging. • Green Fluorescence: U-EGFP (OLYMPUS), Ex: 470/20, Em: 518/45 • Red fluorescence: BrightLine®SpGold-B-000-ZERO (Semrock), Ex: 534/20, Em: 572/28 • Near Infrared Fluorescence: BrightLine®Cy5.5-B-000 (Semrock), Ex: 655/40, Em: 716/40
The GFP-inserted Type V collagen α1 expression MC3T3-E1 was cultured in multi-well plates and when switched to stress cultures capable of inducing collagen secretion, 1.0 mg/ml of Pirfenidone was added and compared to wells without such addition of Pirfenidone. […]

Cc1ccc(=O)n(-c2ccccc2)c1 [Pirfenidone]
extracellular collagen fiber formation (green fluorescent fiber structures): inhibited
